Laboratory results taken from ChEMBL document CHEMBL1208738, “Optimization of privileged structures for selective and potent melanocortin subtype-4 receptor ligands” (Bioorg Med Chem Lett, 2010).

Experiments:
Melanocortin receptor 4 [1] = biological target: T1, Melanocortin receptor 4 (Homo sapiens, UniProt P32245); assay: Displacement of [125I]NDP-alpha-MSH from human MC4 receptor expressed in CHO cells; assay type: cell-based
Melanocortin receptor 4 [2] = biological target: T1, Melanocortin receptor 4; assay: Agonist activity at human MC4 receptor expressed in CHO cells assessed as increase of alpha-MSH-induced cAMP accumulation; assay type: functional, cell-based
[3] = Oral bioavailability in Sprague-Dawley rat at 4 mg/kg; assay type: ADME, organism-based; details: in vivo
[4] = Clearance in Sprague-Dawley rat at 1 mg/kg, iv and 4 mg/kg, po; assay type: ADME, organism-based; details: in vivo
[5] = Half life in Sprague-Dawley rat at 1 mg/kg, iv and 4 mg/kg, po; assay type: ADME, organism-based; details: in vivo
[6] = Volume of distribution at steady state in Sprague-Dawley rat at 1 mg/kg, iv and 4 mg/kg, po; assay type: ADME, organism-based; details: in vivo, read-out: Vdss
[7] = biological target: T2, Melanocyte-stimulating hormone receptor (Homo sapiens, UniProt Q01726); assay: Displacement of [125I]NDP-alpha-MSH from human MC1 receptor expressed in CHO cells; assay type: cell-based
Target sequence in this assay (Q01726 whole entry): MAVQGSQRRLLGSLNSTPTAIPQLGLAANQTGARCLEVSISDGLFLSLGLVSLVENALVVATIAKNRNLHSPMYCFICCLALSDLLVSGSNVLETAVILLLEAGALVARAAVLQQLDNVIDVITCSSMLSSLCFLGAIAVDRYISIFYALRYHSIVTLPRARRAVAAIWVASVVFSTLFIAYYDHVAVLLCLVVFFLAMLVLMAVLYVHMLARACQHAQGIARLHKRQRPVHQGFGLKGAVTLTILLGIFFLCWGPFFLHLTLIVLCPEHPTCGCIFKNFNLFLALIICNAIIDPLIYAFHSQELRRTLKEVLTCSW

Melanocortin receptor 5 [8] = biological target: T3, Melanocortin receptor 5 (Homo sapiens, UniProt P33032); assay: Agonist activity at human MC5 receptor expressed in CHO cells assessed as increase of alpha-MSH-induced cAMP accumulation; assay type: functional, cell-based
T3 sequence (P33032 whole entry): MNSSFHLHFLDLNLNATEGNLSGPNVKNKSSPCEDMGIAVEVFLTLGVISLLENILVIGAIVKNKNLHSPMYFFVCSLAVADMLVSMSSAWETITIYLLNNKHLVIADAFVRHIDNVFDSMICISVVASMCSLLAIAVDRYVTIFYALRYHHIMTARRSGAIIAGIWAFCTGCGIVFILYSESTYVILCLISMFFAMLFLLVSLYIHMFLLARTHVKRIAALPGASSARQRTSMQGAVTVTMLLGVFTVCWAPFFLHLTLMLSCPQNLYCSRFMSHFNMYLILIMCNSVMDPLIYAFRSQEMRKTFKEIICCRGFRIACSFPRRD

Melanocortin receptor 3 [9] = biological target: T4, Melanocortin receptor 3 (Homo sapiens, UniProt P41968); assay: Displacement of [125I]NDP-alpha-MSH from human MC3 receptor expressed in CHO cells; assay type: cell-based
T4 sequence (P41968 whole entry): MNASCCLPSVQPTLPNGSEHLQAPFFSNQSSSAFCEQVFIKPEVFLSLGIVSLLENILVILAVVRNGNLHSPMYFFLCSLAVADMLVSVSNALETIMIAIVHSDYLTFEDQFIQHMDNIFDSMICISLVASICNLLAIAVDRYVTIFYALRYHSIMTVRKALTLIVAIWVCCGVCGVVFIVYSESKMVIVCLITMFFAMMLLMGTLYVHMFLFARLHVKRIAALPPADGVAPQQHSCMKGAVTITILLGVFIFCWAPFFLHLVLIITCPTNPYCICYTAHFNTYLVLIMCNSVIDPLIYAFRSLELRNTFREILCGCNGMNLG

[10] = biological target: T2, Melanocyte-stimulating hormone receptor; assay: Agonist activity at human MC1 receptor expressed in CHO cells assessed as increase of alpha-MSH-induced cAMP accumulation; assay type: functional, cell-based
Target sequence in this assay (Q01726 whole entry): as the sequence (Q01726 whole entry) above

Melanocortin receptor 3 [11] = biological target: T4, Melanocortin receptor 3; assay: Agonist activity at human MC3 receptor expressed in CHO cells assessed as increase of alpha-MSH-induced cAMP accumulation; assay type: functional, cell-based
Melanocortin receptor 5 [12] = biological target: T3, Melanocortin receptor 5; assay: Displacement of [125I]NDP-alpha-MSH from human MC5 receptor expressed in CHO cells; assay type: cell-based
Melanocortin receptor 4 [13] = biological target: T1, Melanocortin receptor 4; assay: Agonist activity at human MC4 receptor expressed in CHO cells assessed as increase of alpha-MSH-induced cAMP accumulation at 10 uM relative to alpha-MSH; assay type: functional, cell-based
Homo sapiens [14] = species on record: Homo sapiens; assay: Selectivity ratio of IC50 for human MC5 receptor to IC50 for human MC4 receptor
Melanocortin receptor 3 [15] = biological target: T4, Melanocortin receptor 3; assay: Agonist activity at human MC3 receptor expressed in CHO cells assessed as increase of alpha-MSH-induced cAMP accumulation at 10 uM relative to alpha-MSH; assay type: functional, cell-based
Homo sapiens [16] = species on record: Homo sapiens; assay: Selectivity ratio of IC50 for human MC1 receptor to IC50 for human MC4 receptor
[17] = biological target: T2, Melanocyte-stimulating hormone receptor; assay: Agonist activity at human MC1 receptor expressed in CHO cells assessed as increase of alpha-MSH-induced cAMP accumulation at 10 uM relative to alpha-MSH; assay type: functional, cell-based
Target sequence in this assay (Q01726 whole entry, looked up): as the sequence (Q01726 whole entry) above

Homo sapiens [18] = species on record: Homo sapiens; assay: Selectivity ratio of EC50 for human MC1 receptor to EC50 for human MC4 receptor
Homo sapiens [19] = species on record: Homo sapiens; assay: Selectivity ratio of EC50 for human MC5 receptor to EC50 for human MC4 receptor
Melanocortin receptor 5 [20] = biological target: T3, Melanocortin receptor 5; assay: Agonist activity at human MC5 receptor expressed in CHO cells assessed as increase of alpha-MSH-induced cAMP accumulation at 10 uM relative to alpha-MSH; assay type: functional, cell-based

T1 sequence (P32245 whole entry): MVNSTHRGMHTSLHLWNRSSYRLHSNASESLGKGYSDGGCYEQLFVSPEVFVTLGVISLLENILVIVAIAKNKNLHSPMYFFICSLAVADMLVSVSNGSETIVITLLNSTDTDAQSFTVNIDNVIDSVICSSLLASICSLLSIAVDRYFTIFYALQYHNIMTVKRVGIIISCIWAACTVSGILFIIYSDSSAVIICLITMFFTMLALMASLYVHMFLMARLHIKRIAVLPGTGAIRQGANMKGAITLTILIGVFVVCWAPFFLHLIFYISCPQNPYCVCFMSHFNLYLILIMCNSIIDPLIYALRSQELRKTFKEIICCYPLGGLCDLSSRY

## CC(C)N(CC(C1CCCCC1)N1CCN(C(=O)[C@@H]2CN(C(C)(C)C)C[C@H]2c2ccc(F)cc2F)CC1)C(=O)c1ncccn1 (single isomer, unassigned; diastereomer 1)
Melanocortin receptor 4 [1]
  IC50: 35 nM
Melanocortin receptor 4 [2]
  EC50: 10 nM
[3]
  bioavailability: 26%
[4]
  clearance: 31 mL/min/kg
[5]
  half-life: 1.8 h
[6]
  Vd: 3.8 L/kg

## CC(=O)N(CC(C1CCCCC1)N1CCN(C(=O)[C@@H]2CN(C(C)(C)C)C[C@H]2c2ccc(F)cc2F)CC1)C(C)C (stereo in doubt; 19B) [listing 1 of 2 here]
[7]
  IC50: 1800 nM
Melanocortin receptor 5 [8]
  EC50: 2800 nM
Melanocortin receptor 4 [1]
  IC50: 28 nM
Melanocortin receptor 4 [2]
  EC50: 25 nM
[3]
  bioavailability: 12%
Melanocortin receptor 3 [9]
  IC50: 6500 nM
[4]
  clearance: 42 mL/min/kg
[10]
  EC50: 890 nM
[5]
  half-life: 2.2 h
Melanocortin receptor 3 [11]
  EC50: 2000 nM
[6]
  Vd: 6.8 L/kg
Melanocortin receptor 5 [12]
  IC50: 660 nM

## CCN(CC)CC(C1CCCCC1)N1CCN(C(=O)[C@@H]2CN(C(C)(C)C)C[C@H]2c2ccc(F)cc2F)CC1 (stereo partly drawn)
Melanocortin receptor 4 [1]
  IC50: 260 nM
Melanocortin receptor 4 [2]
  EC50: 570 nM
[3]
  bioavailability: 22%
[4]
  clearance: 7.3 mL/min/kg
Melanocortin receptor 4 [13]
  Activity: 101%
[5]
  half-life: 34 h
[6]
  Vd: 19 L/kg

## CC(C)N(CC(C1CCCCC1)N1CCN(C(=O)[C@@H]2CN(C(C)(C)C)C[C@H]2c2ccc(F)cc2F)CC1)S(C)(=O)=O (single isomer, unassigned; diastereomer 2)
[7]
  IC50: 1000 nM
Melanocortin receptor 5 [8]
  EC50: > 5000 nM
Melanocortin receptor 4 [1]
  IC50: 13 nM
Melanocortin receptor 4 [2]
  EC50: 13 nM
[3]
  bioavailability: 21%
Melanocortin receptor 3 [9]
  IC50: 3600 nM
[4]
  clearance: 25 mL/min/kg
[10]
  EC50: 540 nM
[5]
  half-life: 2.7 h
Melanocortin receptor 3 [11]
  EC50: 1800 nM
[6]
  Vd: 6 L/kg
Melanocortin receptor 5 [12]
  IC50: 250 nM

## CC(=O)N(CC(CC(C)C)N1CCN(C(=O)[C@@H]2CN(C(C)(C)C)C[C@H]2c2ccc(F)cc2F)CC1)C(C)C (single isomer, unassigned; diastereomer 2)
Homo sapiens [14]
  Ratio IC50: 20
Melanocortin receptor 3 [15]
  Activity: 109%
Homo sapiens [16]
  Ratio IC50: 20
[17]
  Activity: 77%
Homo sapiens [18]
  Ratio EC50: 20
Melanocortin receptor 4 [13]
  Activity: 113%
Homo sapiens [19]
  Ratio EC50: 20
Melanocortin receptor 5 [20]
  Activity: 56%

## CC(=O)N(CC(C1CCCCC1)N1CCN(C(=O)[C@@H]2CN(C(C)(C)C)C[C@H]2c2ccc(F)cc2F)CC1)C(C)C (stereo in doubt; 19B) [listing 2 of 2 here]
Homo sapiens [14]
  Ratio IC50: 20
Melanocortin receptor 3 [15]
  Activity: 81%
Homo sapiens [16]
  Ratio IC50: 20
[17]
  Activity: 61%
Homo sapiens [18]
  Ratio EC50: 20
Melanocortin receptor 4 [13]
  Activity: 123%
Homo sapiens [19]
  Ratio EC50: 20
Melanocortin receptor 5 [20]
  Activity: 64%
